The source of these data is patent US9730442B2, “Use of 4-phenylbutyric acid for improving the tolerance of plants to harmful biological organisms” (INSTITUT DE RECHERCHE POUR LE DÉVELOPPEMENT (IRD), priority 2012, dated 2017).

SMILES strings stand for the structures.

Series [1] concerns genes encoding BiP1,2, BiP3, CNX1 and CRT1. Nature of the series: Real-time quantitative PCR of endoplasmic reticulum chaperone genes in A. thaliana leaves. Format: in vivo, Arabidopsis thaliana. Particulars: 44 hours post-inoculation, FIG. 3. Here is the method: The 4-PBA solutions used in the experiments described hereinafter were prepared as described in Example 1.
The infection with Pst (avirulent strain DC3000::AvrRpt2) was carried out under the same conditions as those described above. An additional condition was added, corresponding to the infiltration of a solution of 4-PBA (1 mM) alone into the A. thaliana leaves.
Samples were harvested 44 hours post-inoculation, frozen in liquid nitrogen and then stored at −80° C. until total RNA extraction. The total RNA was reverse transcribed so as to synthesize cDNAs. These cDNAs were used as a template in real-time quantitative PCR experiments. Primers specific for the genes encoding the binding proteins (BiP1,2 and BiP3), calnexin 1 (CNX1) and calreticulin 1 (CRT1) were designed so as to measure the expression of these genes. The expression of the genes of interest was standardized with respect to that of an actin gene. These experiments were repeated once, including one as a duplicate per experiment.

The subject of series [2] is nonhost hypersensitive cell death induced by Pseudomonas syringae pv. tomato. Nature of the series: Nonhost hypersensitive cell death in tobacco interacting with Pseudomonas syringae pv. tomato (data not presented). The class given is in vivo. Here is the method:
(§1) The effect of 4-PBA on cell death of hypersensitive nature was tested on several pathosystems, including those presented in FIGS. 1 & 2, namely Gossypium hirsutum/Xanthomonas campestris pv. malvacearum and Arabidopsis thaliana/Pseudomonas syringae. pv. tomato, respectively. […] The latter data concern hypersensitive cell death induced in tobacco by an elicitor of fungal origin, cryptogein, and nonhost hypersensitive cell death in tobacco interacting with the bacterium Pseudomonas syringae pv. tomato.

In the next series the test system is Xcm race 20. Nature of the series: In vitro bacterial growth in King B liquid medium, absorbance at 600 nm. Format: cell-based, Xanthomonas campestris pv. malvacearum. Particulars: 4-PBA 1 mM in King B liquid medium; approximately 16 hours, 30° C.; FIG. 5. Here is the method: The effect of 4-PBA on phytopathogenic bacteria was tested in vitro on the bacterial strain Xcm race 20. The strain was cultured in King B liquid medium in the presence or absence of 4-PBA. The 4-PBA solution was prepared extemporaneously as described above. The nutritive medium was inoculated either using glycerol stocks, or using bacterial colonies freshly cultured in solid medium. The nutritive medium was then supplemented with the 4-PBA solution in order to achieve a final concentration of 1 mM (final volume of 10 ml). […] The tubes were then incubated overnight (approximately 16 hours) with gentle shaking at 30° C. The bacterial growth was then measured by nephelometry by measuring the absorbance of an aliquot of the bacterial cultures at 600 nm. This experiment was repeated three times. Each experiment contained one technical triplicate per condition, i.e. condition with 4-PBA and condition without 4-PBA.

Series [3] relates to hypersensitive cell death induced by Xanthomonas campestris pv. malvacearum (Xcm, race 18). Nature of the series: Hypersensitive cell death induced by Xcm infiltration into cotton plant cotyledons. Format: in vivo, Gossypium hirsutum. Particulars: 4-PBA 2 mM co-infiltrated with Xcm race 18 at 10^8 cfu/ml; four days after inoculation; FIG. 1. Here is the method: (§2) A stock solution of 4-PBA (10 mM) was prepared extemporaneously by dissolving powder in sterile distilled water. In order to allow complete dissolution of the 4-PBA, the solution was heated at 50° C. for 10 minutes.
The Xanthomonas campestris pv. malvacearum bacteria (Xcm, race 18) were cultured overnight in a rich nutritive medium (King B). After sedimentation by centrifugation, said bacteria were washed with sterile distilled water before being resuspended at a concentration of 10^8 cfu/ml. The resuspending of the cells is carried out either in sterile distilled water, or in a solution of 4-PBA at 2 mM. These two types of suspensions were infiltrated into cotton plant (Gossypium hirsutum) cotyledons on each side of the central vein for comparison.

Series [4] concerns hypersensitive cell death induced by Pseudomonas syringae pv. tomato (Pst, avirulent strain DC3000::AvrRpt2). Nature of the series: Hypersensitive cell death induced by Pst infiltration into Arabidopsis thaliana leaves. Particulars: 4-PBA 1 mM co-infiltrated with Pst DC3000::AvrRpt2 at 10^7 cfu/ml; six days post-inoculation; FIG. 2. The class given is in vivo. Here is the method: as §2
The bacteria (Pst, avirulent strain DC3000::AvrRpt2) were cultured overnight in a rich nutritive medium (King B). After sedimentation by centrifugation, said bacteria were washed with sterile distilled water before being resuspended at a concentration of 10^7 cfu/ml. The resuspending of the cells is carried out either in sterile distilled water, or in a solution of 4-PBA at 1 mM. These suspensions were then infiltrated into the leaves of the Arabidopsis thaliana rosette. The macroscopic symptoms were monitored over a period of six days post-inoculation.

Series [5] has as its system genes encoding BiP proteins. Nature of the series: Real-time quantitative PCR of BiP genes in tobacco leaves. Format: in vivo, Nicotiana tabacum. As to conditions: 4-PBA infiltrated into tobacco leaves; FIG. 4B. Here is the method: (§3) The concentration range presented in FIG. 4A was produced by infiltration into tobacco leaves of 4-PBA solutions at 0.5, 1, 2.5 and 5 mM. The macroscopic symptoms were evaluated 48 hours post-infiltration. Samples were also harvested at the times indicated in FIG. 4B and treated as described above so as to be analyzed by real-time quantitative PCR. Primers specific for all of the nine genes encoding BiP proteins were designed for this purpose.

Series [6] relates to tobacco leaves (plant cells). Nature of the series: Concentration range infiltrated into tobacco leaves, macroscopic symptoms. Format: in vivo, Nicotiana tabacum. Particulars: 4-PBA at 0.5, 1, 2.5 and 5 mM infiltrated into tobacco leaves; 48 hours post-infiltration; FIG. 4A. Here is the method:
as §3

In series [7] the test system is hypersensitive cell death induced by cryptogein. Nature of the series: Hypersensitive cell death induced in tobacco by cryptogein (data not shown). The class given is in vivo. Here is the method: as §1

On to `O=C(O)CCCc1ccccc1` [4-PBA, 4-phenylbutyric acid], for which the “expression of genes encoding chaperone proteins (BiP1,2, BiP3, CNX1, CRT1)” value in series [1] (4-PBA 1 mM infiltrated alone, standardized to actin) is reported as “significantly induce the expression of genes encoding chaperone proteins”. The “expression of BiP1,2, CNX1 and CRT1 genes, 4-PBA combined with Pst infection” value in series [1] (4-PBA 1 mM plus Pst) is reported as “synergistic effect”. In series [2], the “nonhost hypersensitive cell death in tobacco with Pseudomonas syringae pv. tomato” value is “confirm the anti-cell death properties”. In addition, the “bacterial growth (absorbance at 600 nm)” value with Xcm race 20 is on record as “strongly inhibits the growth”. The “hypersensitive symptoms (macroscopic) in cotton plant cotyledonary leaves” value in series [3] is listed as “strongly represses the hypersensitive symptoms”. In addition, the “hypersensitive symptoms (macroscopic) in A. thaliana leaves” value in series [4] is reported as “capable of abolishing the hypersensitive symptoms”. Besides, the “BiP gene expression in tobacco” value in series [5] was “capable of inducing BiP gene expression in tobacco”. Further, the “toxicity to plant cells (macroscopic symptoms)” value in series [6] is reported as “not toxic to the plant cells”. Moreover, the “hypersensitive cell death induced by cryptogein in tobacco” value in series [7] is listed as “repress hypersensitive cell death”.
